Entries after “also recorded” stand apart in the source; their conditions may differ.
Tests used:
Format in all cases: cell-based, bovine
[1] = test system: SCs and FAPs; experiment: Compound screening: ratio of SCs in a cell culture of SCs and FAPs after one passage (flow cytometry); conditions: SFM1 base medium, HGF 10×=50 ng/ml, IC 50 μM, HC 138 nM, T3 30 nM, DAPT 5 or 10 μM, FGF2 10×=100 ng/ml, SB203580 10 μM, IL6 20 ng/ml, PDGF-bb 10×=50 ng/ml
Experimental: Excess visible fat and fibrous tissue was removed prior to dissociation, and muscle fibers were dissociated using collagenase AFC A (Worthington, CLSAFA, 2000U/ml) for 45 minutes at 37° C. Muscle isolates were incubated in 1× ACK erythrocyte lysis buffer for 1 minute at room temperature. Cells were resuspended in a serum-free proliferation medium (SFM1 medium) and immediately seeded into fibronectin (4 μg cm-2 bovine fibronectin; F1141, Merck/Sigma) coated tissue culture plates, and pre-cultured at 37° C. for 72 hours. The serum-free proliferation medium that was used is as disclosed in WO 2021/158103, the contents of which are incorporated herein by reference, and is referred to therein as “SFM1” and contains: albumin (5 mg/ml), somatotropin (2 ng/ml), L-Ascorbic acid 2-phosphate (50 μg/ml), hydrocortisone (36 ng/ml), a-linolenic acid (1 μg/ml), insulin (10 μg/ml), transferrin (5.5 μg/ml), sodium selenite (0.0067 μg/ml), ethanolamine (2 μg/ml), L-alanyl-L-glutamine or glutamine (2 mM), IL-6 (5 ng/ml), FGF2 also referred to as bFGF (10 ng/ml), IGF1 (100 ng/ml), VEGF (10 ng/ml), HGF (5 ng/ml), PDGF-bb (10 ng/ml) and DMEM/F12 basal medium. In the experiments described herein, the SFM1 medium is also referred to as control (Ctrl) or base medium.
After 72 hours of pre-culture, FAPS were sorted using a MACSQuant Tyto sorter (Miltenyi) based on absence of expression of JAM1, CD45, and integrin alpha 7 (ITGA7), and the positive expression of integrin alpha 5 (ITGA5). SCs were sorted based on the absence of expression of JAM1, CD45, ITGA5, and the positive expression of ITGA7.
After FACS sorting, FAP cells and SC cells were cultured on collagen Type I coated tissue culture flasks at 37° C. and 5% CO2 in a serum-free proliferation medium (SFM1). Purities of SCs and FAPs were assessed at the end of each passage by measuring the expression of ITGA7 and ITGA5 via flow cytometry as described below.
Sorted SCs and FAPs were stained with ITGA7-PE and […]. Subsequently, cells were washed and analyzed on a MACSQuant 10 flow analyzer (Miltenyi). Unstained cells were used as a negative control, and to define gating parameters. For the compound screenings (FIG. 2A), percentage of SCs relative to FAPs was determined after one culture passage.
These informed the selection of compounds to favor the proliferation of either of the two cell types. Increasing or decreasing the concentration of growth factors targeting these receptors, or adding compounds that target downstream pathways, altered the growth of SCs relative to FAPs (FIG. 2A, FIG. 2B). As only SCs and FAPs were present in the cell cultures of FIG. 2A and 2B, measuring the relative amount (ratio) of SCs likewise provides information about the relative amount (ratio) of FAPs in the respective media. The ratio of SCs in the respective cell media was normalized against a control ratio (Ctrl; set at 1) which means that a promotion of SCs results in an increase of SCs compared to the control culture (>1), whereas a relative decrease of SCs in the medium compared to the control culture (<1) denotes at the same time for a promotion of FAP proliferation in the respective media.

[2] = test system: SCs and FAPs; experiment: Long-term proliferation assay of SC/FAP mixtures on Laminin 521 with different media (FIGS. 4A-4C); conditions: Laminin 521 coating
Experimental: (§1) Cells were isolated, purified and cultured as described in Example 1. For long-term proliferation assays, mixtures of SCs and FAPs were cultured on different coatings (FIG. 3) or on Laminin 521 with different media (FIGS. 4A-4C). After every passage, the ratio of SCs to FAPs was measured as the ratio of ITGA7+/ITGA5−cells (SCs) to ITGA7−/ITGA5+cells (FAPs) via flow cytometry, as described in Example 1.
Using Laminin 521 as a coating, we further used the previously identified compounds to adapt the base media (Ctrl) to favor the growth of SCs over FAPs (FIGS. 4A-4C).

[3] = test system: SCs and FAPs; experiment: Long-term proliferation assay of SC/FAP mixtures on different coatings (FIG. 3); conditions: compound applied as culture vessel coating, measured after every passage by ITGA7/ITGA5 flow cytometry
Experimental: as §1
Using long-term proliferation assays, combined with flow cytometry for ITGA7/ITGA5, we tested different compounds including extracellular matrix proteins tissue culture vessel coatings, and measured percentage of SCs over time in a cell culture that contains SCs and FAPs.

[4] = single media adaptation of base media (Ctrl): 10× HGF or T3 added

C[C@H](NC(=O)Cc1cc(F)cc(F)c1)C(=O)N[C@H](C(=O)OC(C)(C)C)c1ccccc1 [DAPT]
growth of SCs relative to FAPs (ratio of SCs normalized against control ratio, Ctrl set at 1) [1]: specifically promoted the proliferation of SCs

C[C@]12CCC(=O)C=C1CC[C@@H]1[C@@H]2[C@@H](O)C[C@@]2(C)[C@H]1CC[C@]2(O)C(=O)CO [HC, Hydrocortisone]
growth of SCs relative to FAPs (ratio of SCs normalized against control ratio, Ctrl set at 1) [1]: specifically promoted the proliferation of SCs

COc1ccc2c(c1)c(CC(=O)O)c(C)n2C(=O)c1ccc(Cl)cc1 [IC, Indomethacin]
growth of SCs relative to FAPs (ratio of SCs normalized against control ratio, Ctrl set at 1) [1]: specifically promoted the proliferation of SCs

C[S+]([O-])c1ccc(-c2nc(-c3ccc(F)cc3)c(-c3ccncc3)[nH]2)cc1 (stereo not shown) [SB203580, 4-{4-(4-Fluorophenyl)-2-[4-(methanesulfinyl)phenyl]-1H-imidazol-5-yl} pyridine]
growth of SCs relative to FAPs (ratio of SCs normalized against control ratio, Ctrl set at 1) [1]: specifically promoted the proliferation of SCs

N[C@@H](Cc1cc(I)c(Oc2ccc(O)c(I)c2)c(I)c1)C(=O)O [T3, Triiodothyronine, reference compound]
growth of SCs relative to FAPs (ratio of SCs normalized against control ratio, Ctrl set at 1) [1]: specifically promoted the proliferation of SCs | relative growth/proliferation of SCs compared to FAPs [2, 4]: promoted the relative growth/proliferation of SCs compared to FAPs

Interleukin 6 [IL-6]
growth of SCs relative to FAPs (ratio of SCs normalized against control ratio, Ctrl set at 1) [1]: specifically promoted the proliferation of FAPs

Laminin 521: extracellular matrix protein used as tissue culture vessel coating
percentage of SCs in total cells (SCs and FAPs) over long-term proliferation [3]: the percentage of SCs remained high | percentage of SCs in total cells (SCs and FAPs) over long-term proliferation ([3]; listed as laminin 521): allow for maintaining high percentages of SCs during proliferation

collagen
percentage of SCs in total cells (SCs and FAPs) over long-term proliferation [3]: the proportion of FAPs increased quickly over 3 passages | percentage of SCs in total cells (SCs and FAPs) over long-term proliferation ([3]; listed as Collagen): favor proliferation of FAPs

fibroblast growth factor 2 [FGF2]
growth of SCs relative to FAPs (ratio of SCs normalized against control ratio, Ctrl set at 1) [1]: specifically promoted the proliferation of SCs

fibronectin
percentage of SCs in total cells (SCs and FAPs) over long-term proliferation [3]: the proportion of FAPs increased quickly over 3 passages; also recorded: favor proliferation of FAPs

hepatocyte growth factor [HGF]
growth of SCs relative to FAPs (ratio of SCs normalized against control ratio, Ctrl set at 1) [1]: specifically promoted the proliferation of SCs | relative growth/proliferation of SCs compared to FAPs [2, 4]: promoted the relative growth/proliferation of SCs compared to FAPs

B1: PDGF-bb: growth factor of the base medium (protein, UniProt P01127 82-190, looked up)
Platelet-derived growth …: SLGSLTIAEPAMIAECKTRTEVFEISRRLIDRTNANFLVWPPCVEVQRCSGCCNNRNVQCRPTQVQLRPVQVRKIEIVRKKPIFKKATVTLEDHLACKCETVAAARPVT
growth of SCs relative to FAPs (ratio of SCs normalized against control ratio, Ctrl set at 1) [1]: specifically promoted the proliferation of FAPs | relative growth/proliferation of SCs compared to FAPs ([2]; single media adaptation 0× PDGF-bb (PDGF-bb absent from base media)): promoted the relative growth/proliferation of SCs compared to FAPs

B2: vitronectin: extracellular matrix protein used as tissue culture vessel coating (protein, UniProt P04004 20-478, looked up)
Vitronectin: DQESCKGRCTEGFNVDKKCQCDELCSYYQSCCTDYTAECKPQVTRGDVFTMPEDEYTVYDDGEEKNNATVHEQVGGPSLTSDLQAQSKGNPEQTPVLKPEEEAPAPEVGASKPEGIDSRPETLHPGRPQPPAEEELCSGKPFDAFTDLKNGSLFAFRGQYCYELDEKAVRPGYPKLIRDVWGIEGPIDAAFTRINCQGKTYLFKGSQYWRFEDGVLDPDYPRNISDGFDGIPDNVDAALALPAHSYSGRERVYFFKGKQYWEYQFQHQPSQEECEGSSLSAVFEHFAMMQRDSWEDIFELLFWGRTSAGTRQPQFISRDWHGVPGQVDAAMAGRIYISGMAPRPSLAKKQRFRHRNRKGYRSQRGHSRGRNQNSRRPSRATWLSLFSSEESNLGANNYDDYRMDWLVPATCEPIQSVFFFSGDKYYRVNLRTRRVDTVDPPYPRSIAQYWLGCPAPGHL
percentage of SCs in total cells (SCs and FAPs) over long-term proliferation [3]: the percentage of SCs remained high | percentage of SCs in total cells (SCs and FAPs) over long-term proliferation ([3]; listed as Vitronectin): allow for maintaining high percentages of SCs during proliferation

Reference: US20260022341A1, “METHOD OF GENERATING A HOMOCELLULAR PROGENITOR CELL CULTURE FROM A HETEROCELLULAR TISSUE SAMPLE” (MOSA MEAT B.V., priority 2022, published 2026)
